Columns and labels:
XIAP-BIR3 = molecular target: T1, XIAP-BIR3 (Homo sapiens, UniProt P98170); experiment: XIAP-BIR3 fluorescence polarization binding assay; settings: FP, probe AbuRPFK-5FAM (SM5F) 5 nM, XIAP-BIR3 40 nM, 60 min at 25° C.
T1 construct: XIAP-BIR3; purchased Reaction Biology APT-11-374
Summary of the method: (§1)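 Fluorescence polarization competition using 5-carboxyfluorescein-labelled peptide probe AbuRPFK-5FAM; protein and compound preincubated 15 min, probe added, then 60 min at 25° C.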

cIAP1-BIR3 = molecular target: T2, cIAP1-BIR3 (Homo sapiens, UniProt Q13490); experiment: cIAP1-BIR3 fluorescence polarization binding assay; settings: FP, probe AbuRPFK-5FAM (SM5F) 5 nM, cIAP1-BIR3 15 nM, 60 min at 25° C.
T2 construct: cIAP1-BIR3; purchased Reaction Biology APT-11-370
T2 sequence (Q13490 253-363 limits assumed): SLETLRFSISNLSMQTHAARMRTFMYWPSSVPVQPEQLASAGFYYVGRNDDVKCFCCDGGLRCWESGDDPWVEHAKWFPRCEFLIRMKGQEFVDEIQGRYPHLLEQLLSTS
Summary of the method: as §1

cIAP2-BIR3 = molecular target: T3, cIAP2-BIR3 (Homo sapiens, UniProt Q13489); experiment: cIAP2-BIR3 fluorescence polarization binding assay; settings: FP, probe AbuRPFK-5FAM (SM5F) 5 nM, cIAP2-BIR3 80 nM, 60 min at 25° C.
T3 construct: cIAP2-BIR3; purchased Reaction Biology APT-11-372
T3 sequence (Q13489 238-349 limits assumed): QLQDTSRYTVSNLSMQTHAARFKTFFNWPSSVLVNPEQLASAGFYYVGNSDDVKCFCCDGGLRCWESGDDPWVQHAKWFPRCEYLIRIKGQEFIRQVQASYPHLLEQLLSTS
Summary of the method: as §1

T1 sequence (P98170 241-356 limits assumed): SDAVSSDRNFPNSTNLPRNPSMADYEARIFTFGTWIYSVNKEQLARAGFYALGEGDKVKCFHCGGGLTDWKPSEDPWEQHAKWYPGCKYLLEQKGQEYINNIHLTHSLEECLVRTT

| IC50 (XIAP-BIR3) [nM] | IC50 (cIAP1-BIR3) [nM] | IC50 (cIAP2-BIR3) [nM] | SMILES |
| --- | --- | --- | --- |
| 100 to 1000 | 1 to 10 | 10 to 100 | CN[C@@H](C)C(=O)N[C@@H](C)C(=O)N1CCC[C@H]1C(=O)N[C@@H]1CCCc2c(-c3cccc4c3CCC[C@H]4NC(=O)[C@@H]3CCCN3C(=O)[C@H](C)NC(=O)[C@H](C)NC)cccc21 [Compound V-H, (2S)-1-[(2S)-2-[(2S)-2-(methylamino)propanamido]propanoyl]-N-[(5R,5′R)-5′-[(2S)-1-[(2S)-2-[(2S)-2-(methylamino)propanamido]propanoyl]pyrrolidine-2-amido]-5H,5′H,6H,6′H,7H,7′H,8H,8′H-[1,1′-binaphthalen]-5-yl]pyrrolidine-2-carboxamide] |
| 10 to 100 | 1 to 10 | 1 to 10 | CN[C@@H](C)C(=O)N[C@H](C(=O)N1CCC[C@H]1C(=O)N[C@@H]1CCCc2c(-c3cccc4c3CCC[C@H]4NC(=O)[C@@H]3CCCN3C(=O)[C@@H](NC(=O)[C@H](C)NC)C(C)C)cccc21)C(C)C [Compound V-M, (2S)-1-[(2S)-3-methyl-2-[(2S)-2-(methylamino)propanamido]butanoyl]-N-[(5R,5′R)-5′-[(2S)-1-[(2S)-3-methy-2-[(2S)-2-(methylamino)propanamido]butanoyl]pyrolidine-2-amido]-5H,5′H,6H,6′H,7H,7′H,8H,8′H-[1,1′-binaphthalen]-5-yl]pyrrolidine-2-carboxamide] |
| 10 to 100 | 1 to 10 | 10 to 100 | CC[C@H](NC(=O)[C@H](C)NC)C(=O)N1CCC[C@H]1C(=O)N[C@@H]1CCCc2c(-c3cccc(-c4cccc5c4CCC[C@H]5NC(=O)[C@@H]4CCCN4C(=O)[C@H](CC)NC(=O)[C@H](C)NC)c3)cccc21 [III-D, (2S)-1-[(2S)-2-[(2S)-2-(methylamino)propanamido]butanoyl]-N-[(1R)-5-[3-[(5R)-5-[(2S)-1-[(2S)-2-[(2S)-2-(methylamino)propanamido]butanoyl]pyrrolidine-2-amido]-5,6,7,8-tetrahydronaphthalen-1-yl]phenyl]-1,2,3,4-tetrahydronaphthalen-1-yl]pyrrolidine-2-carboxamide] |
| 10 to 100 | 1 to 10 | 1 to 10 | CN[C@@H](C)C(=O)N[C@H](C(=O)N1CCC[C@H]1C(=O)N[C@@H]1CCCc2c(OCCOCCOc3cccc4c3CCC[C@H]4NC(=O)[C@@H]3CCCN3C(=O)[C@@H](NC(=O)[C@H](C)NC)C3CCCCC3)cccc21)C1CCCCC1 [Compound II, (2S)-1-[(2S)-2-Cyclohexyl-2-[(2S)-2-(methylamino)propanamido]acetyl]-N-[(1R)-5-[2-(2-[[(5R)-5-[(2S)-1-[(2S)-2-cyclohexyl-2-[(2S)-2-(methylamino)propanamido]acetyl]pyrrolidine-2-amido]-5,6,7,8-tetrahydronaphthalen-1-yl]oxy]ethoxy)ethoxy]-1,2,3,4-tetrahydmnaphthalen-1-yl]pyrrolidine-2-carboxamide] |
| 100 to 1000 | 1 to 10 | 10 to 100 | CN[C@@H](C)C(=O)N[C@H](C(=O)N1C[C@@H](O)C[C@H]1C(=O)N[C@@H]1CCCc2c(OCCCCCOc3cccc4c3CCC[C@H]4NC(=O)[C@@H]3C[C@H](O)CN3C(=O)[C@@H](NC(=O)[C@H](C)NC)C3CCCCC3)cccc21)C1CCCCC1 [Compound I-B, (2S,4S)-1-((S)-2-cyclohexyl-2-((S)-2-(methylamino)propanamido)acetyl)-N—((R)-5-((5-(((R)-5-((2S,4S)-1-((S)-2-cyclohexyl-2-((S)-2-(methylamino)propanamido)acetyl)-4-hydroxypyrrolidine-2-carboxamido)-5,6,7,8-tetrahydronaphthalen-1-yl)oxy)pentyl)oxy)-1,2,3,4-tetrahydronaphthalen-1-yl)-4-hydroxypyrrolidine-2-carboxamide] |
| 10 to 100 | 1 to 10 | 10 to 100 | CN[C@@H](C)C(=O)N[C@H](C(=O)N1CCC[C@H]1C(=O)N[C@@H]1CCOc2c(-c3cccc4c3OCC[C@H]4NC(=O)[C@@H]3CCCN3C(=O)[C@@H](NC(=O)[C@H](C)NC)C3CCCC3)cccc21)C1CCCC1 [Compound V-F, (2S)-1-[(2S)-2-cyclopentyl-2-[(2S)-2-(methylamino)propanamido]acetyl]-N-[(4R)-8-[(4R)-4-[(2S)-1-[(2S)-2-cyclopentyl-2-[(2S)-2-(methylamino)propanamido]acetyl]pyrrolidine-2-amido]-3,4-dihydro-2H-1-benzopyran-8-yl]-3,4-dihydro-2H-1-benzopyran-4-yl]pyrrolidine-2-carboxamide] |
| 10 to 100 | 1 to 10 | 10 to 100 | CN[C@@H](C)C(=O)N[C@H](C(=O)N1CCC[C@H]1C(=O)N[C@@H]1CCCc2c(Nc3cccc4c3CCC[C@H]4NC(=O)[C@@H]3CCCN3C(=O)[C@@H](NC(=O)[C@H](C)NC)C3CCCCC3)cccc21)C1CCCCC1 [Compound VI, (S)-1-((S)-2-cyclohexyl-2-((S)-2-(methylamino)propanamido)acetyl)-N—((R)-5-(((R)-5-((S)-1-((S)-2-cyclohexyl-2-((S)-2-(methylamino)propanamido)acetyl)pyrrolidine-2-carboxamido)-5,6,7,8-tetrahydronaphthalen-1-yl)amino)-1,2,3,4-tetrahydronaphthalen-1-yl)pyrrolidine-2-carboxamide] |
| 10 to 100 | 1 to 10 | 1 to 10 | CN[C@@H](C)C(=O)N[C@H](C(=O)N1C[C@@H](O)C[C@H]1C(=O)N[C@@H]1CCCc2c(-c3ccc(-c4cccc5c4CCC[C@H]5NC(=O)[C@@H]4C[C@H](O)CN4C(=O)[C@@H](NC(=O)[C@H](C)NC)C4CCCCC4)cc3)cccc21)C1CCCCC1 [Compound III-K, (2S,4S)-1-[(2S)-2-cyclohexyl-2-[(2S)-2-(methylamino)propanamido]acetyl]-N-[(1R)-5-[4-[(5R)-5-[(2S,4S)-1-[(2S)-2-cyclohexyl-2-[(2S)-2-(methylamino)propanamido]acetyl]-4-hydroxypyrrolidine-2-amido]-5,6,7,8-tetrahydmnaphthalen-1-yl]phenyl]-1,2,3,4-tetrahydronaphthalen-1-yl]-4-hydroxypyrrolidine-2-carboxamide] |
| 10 to 100 | 1 to 10 | 10 to 100 | CN[C@@H](C)C(=O)N[C@H](C(=O)N1CCC[C@H]1C(=O)N[C@@H]1CCCc2c(-c3cccc4c3CCC[C@H]4NC(=O)[C@@H]3CCCN3C(=O)[C@@H](NC(=O)[C@H](C)NC)C3CCOCC3)cccc21)C1CCOCC1 [Compound V-K, (S)-1-((S)-2-((S)-2-(methylamino)propanamido)-2-(tetrahydro-2H-pyran-4-yl)acetyl)-N-((5R,5′R)-5′-((S)-1-((S)-2-((S)-2-(methylamino)propanamido)-2-(tetrahydro-2H-pyran-4-yl)acetyl)pyrrolidine-2-carboxamido)-5,5′,6,6′,7,7′,8,8′-octahydro-[1,1′-binaphthalen]-5-yl)pyrrolidine-2-carboxamide] |
| > 1000 | 1 to 10 | 10 to 100 | CN[C@@H](C)C(=O)N[C@H](C(=O)N1CCC[C@H]1C(=O)N[C@@H]1CCCc2cc(OCCOCCOc3ccc4c(c3)CCC[C@H]4NC(=O)[C@@H]3CCCN3C(=O)[C@@H](NC(=O)[C@H](C)NC)C3CCCCC3)ccc21)C1CCCCC1 [Compound II-D, (2S)-1-[(2S)-2-cyclohexyl-2-[(2S)-2-(methylamino)propanamido]acetyl]-N-[(1R)-6-[2-(2-[[(5R)-5-[(2S)-1-1(2S)-2-cyclohexyl-2-[(2S)-2-(methylamino)propanamido]acetyl]pyrrolidine-2-amido]-5,6,7,8-tetrahydronaphthalen-2-yl]oxy]ethoxy)ethoxyl-1,2,3,4-tetrahydronaphthalen-1-yl]pyrrolidine-2-carboxamide Formic Acid] |
| 1 to 10 | 1 to 10 | 10 to 100 | CN[C@@H](C)C(=O)N[C@H](C(=O)N1CCC[C@H]1C(=O)N[C@@H]1CCCc2c(-c3cccc(-c4cccc5c4CCC[C@H]5NC(=O)[C@@H]4CCCN4C(=O)[C@@H](NC(=O)[C@H](C)NC)C(C)C)c3)cccc21)C(C)C [Compound III-E, (2S)-1-[(2S)-3-methyl-2-[(2S)-2-(methylamino)propanamido]butanoyl]-N-[(1R)-5-[3-[(5R)-5-[(2S)-1-[(2S)-3-methyl-2-[(2S)-2-(methylamino)propanamido]butanoyl]pyrrolidine-2-amido]-5,6,7,8-tetrahydronaphthalen-1-yl]phenyl]-1,2,3,4-tetrahydronaphthalen-1-yl]pyrrolidine-2-carboxamide] |
| 10 to 100 | 1 to 10 | 10 to 100 | CC[C@H](NC(=O)[C@H](C)NC)C(=O)N1CCC[C@H]1C(=O)N[C@@H]1CCOc2c(-c3cccc4c3OCC[C@H]4NC(=O)[C@@H]3CCCN3C(=O)[C@H](CC)NC(=O)[C@H](C)NC)cccc21 [Compound V-B, (2S)-1-[(2S)-2-[(2S)-2-(methylamino)propanamido]butanoyl]-N-[1(4R)-8-[(4R)-4-[(2S)-1-[(2S)-2-[(2S)-2-(methylamino)propanamido]butanoyl]pyrrolidine-2-amido]-3,4-dihydro-2H-1-benzopyran-8-yl]-3,4-dihydro-2H-1-benzopyran-4-yl]pyrrolidine-2-carboxamide] |

Source: US20220220152A1, “BIVALENT ANTAGONISTS OF INHIBITORS OF APOPTOSIS PROTEINS” (Hepagene Therapeutics (HK) Limited, priority 2019, published 2022)
